Measurements taken from patent publication US12390508B2, “Brain natriuretic peptide engrafted antibodies” (Boehringer Ingelheim International GmbH, priority 2018, dated 2025).
Positions of bridges follow the written chain, without caps; N, C: chain ends. Residues, ends and D or L forms follow the SMILES beside them.

Columns and labels:
[1] = target: T1, insulin degrading enzyme (IDE) (Rattus norvegicus, UniProt P35559); assay: Sensitivity towards proteolytic degradation by insulin degrading enzyme (IDE); conditions: 4 hours incubation with 0.6 μg/ml IDE at 37° C., then activity on the rat receptor cell line
T1 sequence (P35559 42-1019 limits assumed): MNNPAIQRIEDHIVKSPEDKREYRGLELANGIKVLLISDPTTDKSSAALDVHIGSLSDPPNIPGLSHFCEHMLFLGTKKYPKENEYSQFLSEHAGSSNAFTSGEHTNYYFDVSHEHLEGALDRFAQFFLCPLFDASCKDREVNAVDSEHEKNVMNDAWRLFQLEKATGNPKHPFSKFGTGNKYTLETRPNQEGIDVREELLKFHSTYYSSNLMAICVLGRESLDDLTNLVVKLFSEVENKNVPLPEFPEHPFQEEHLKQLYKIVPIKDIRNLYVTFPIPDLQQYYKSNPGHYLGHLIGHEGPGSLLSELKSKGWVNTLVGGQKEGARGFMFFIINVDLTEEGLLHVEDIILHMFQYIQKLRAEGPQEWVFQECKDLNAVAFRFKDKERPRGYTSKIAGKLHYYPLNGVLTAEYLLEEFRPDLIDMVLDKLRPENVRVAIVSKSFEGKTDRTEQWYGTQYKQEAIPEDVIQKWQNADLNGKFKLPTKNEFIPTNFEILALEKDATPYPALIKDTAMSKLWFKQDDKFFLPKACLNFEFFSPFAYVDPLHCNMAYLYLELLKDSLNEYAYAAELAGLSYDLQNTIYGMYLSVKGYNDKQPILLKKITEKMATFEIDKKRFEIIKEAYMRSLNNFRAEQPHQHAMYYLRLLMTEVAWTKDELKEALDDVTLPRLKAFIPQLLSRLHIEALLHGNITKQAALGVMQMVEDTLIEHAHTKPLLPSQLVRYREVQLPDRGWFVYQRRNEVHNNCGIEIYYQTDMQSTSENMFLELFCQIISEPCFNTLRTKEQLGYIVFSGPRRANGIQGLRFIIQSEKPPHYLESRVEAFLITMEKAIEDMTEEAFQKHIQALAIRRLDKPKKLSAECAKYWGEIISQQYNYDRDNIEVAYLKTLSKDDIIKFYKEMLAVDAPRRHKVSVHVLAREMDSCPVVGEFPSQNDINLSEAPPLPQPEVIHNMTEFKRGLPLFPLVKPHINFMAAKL

[2] = target: T2, neutral endopeptidase (NEP) (Homo sapiens, UniProt P08473); assay: Sensitivity towards proteolytic degradation by neutral endopeptidase (NEP); type: in vitro ADME; conditions: 4 hours incubation with 0.6 μg/ml NEP at 37° C., then activity on the rat receptor cell line
T2 construct: purchased R&D Systems 1182-ZNC
T2 sequence (P08473 52-750 limits assumed): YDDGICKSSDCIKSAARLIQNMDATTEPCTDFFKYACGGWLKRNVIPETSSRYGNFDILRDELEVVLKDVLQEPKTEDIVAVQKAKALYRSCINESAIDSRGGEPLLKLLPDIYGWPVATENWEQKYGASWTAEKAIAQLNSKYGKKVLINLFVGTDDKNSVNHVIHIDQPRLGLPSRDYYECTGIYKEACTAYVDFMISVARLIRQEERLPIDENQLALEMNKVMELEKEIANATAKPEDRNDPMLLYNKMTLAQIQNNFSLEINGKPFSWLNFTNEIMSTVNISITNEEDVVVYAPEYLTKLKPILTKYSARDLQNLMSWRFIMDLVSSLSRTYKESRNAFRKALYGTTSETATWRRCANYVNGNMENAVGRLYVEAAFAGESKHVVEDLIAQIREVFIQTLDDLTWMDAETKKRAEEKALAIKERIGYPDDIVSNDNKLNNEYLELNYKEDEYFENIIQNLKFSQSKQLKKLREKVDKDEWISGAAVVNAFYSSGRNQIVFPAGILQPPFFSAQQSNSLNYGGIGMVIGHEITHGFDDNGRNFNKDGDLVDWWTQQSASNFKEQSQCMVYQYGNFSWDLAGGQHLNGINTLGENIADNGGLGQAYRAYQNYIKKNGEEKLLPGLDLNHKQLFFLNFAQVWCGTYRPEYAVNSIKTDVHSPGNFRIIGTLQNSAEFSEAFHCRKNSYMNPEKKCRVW

## CC[C@H](C)[C@@H]1NC(=O)[C@H](CCCNC(=N)N)NC(=O)[C@H](CC(=O)O)NC(=O)[C@H]([C@@H](C)CC)NC(=O)[C@H](CCCCN)NC(=O)[C@H](CCC(N)=O)NC(=O)CNC(=O)[C@H](Cc2ccccc2)NC(=O)[C@@H](NC(=O)[C@H](CO)NC(=O)[C@H](CO)NC(=O)[C@H](CO)NC(=O)[C@H](Cc2c[nH]cn2)NC(=O)[C@H](C)NC(=O)[C@H](CCSC)NC(=O)[C@H](CCCCN)NC(=O)[C@H](CO)NC(=O)[C@@H](N)CC(N)=O)CSSC[C@@H](C(=O)N[C@@H](CC(=O)O)C(=O)NCC(=O)N[C@@H](CC(C)C)C(=O)N[C@@H](CCCNC(=N)N)C(=O)N[C@@H](CC(C)C)C(=O)N[C@@H](Cc2ccccc2)C(=O)O)NC(=O)CNC(=O)[C@H](CC(C)C)NC(=O)[C@H](CCCNC(=N)N)NC(=O)[C@H](CO)NC(=O)[C@H](C(C)C)NC(=O)[C@H](C)NC(=O)CNC1=O [BNP, reference compound] (H-NSKMAHSSSCFGQKIDRIGAVSRLGCDGLRLF-OH; disulfide 10-26; N-terminus and C-terminus assumed)
[1]
  sensitivity towards proteolytic degradation by IDE: high sensitivity
[2]
  sensitivity towards proteolytic degradation by NEP: high sensitivity
